The values that follow are results of earlier work, collected in patent US20080185562A1, “Oxalate ester chemiluminescent light system” (Tianjin Dragon Chemiluminescent Tubes Co., Ltd., priority 2007, published 2008).

Data set [1] deals with rats. To be noted: rat.
The conditions of data set [2]: PEG value depends on molecular weight.
The conditions of data set [3]: at 122° C.
The subject of data set [4] is mus.

Take `CCCCOCCOCCOCCCC` [dibutyl diethylene glycol ether]: the “Toxicity (LD50 oral, mg/kg)” value in data set [1] is recorded as 3,900 (rat) mg/kg. Further, the “Flash point (° C./° F.)” value in data set [2] is 117/243. Further, in data set [3], the “Vapor pressure (kPa)” value was 1.33 at 122 °C kPa.
On to `OCCCO` [1,3-propylene glycol], for which the “Flash point (° C./° F.)” value in data set [2] was 79/174. Besides, in data set [4], the “Toxicity (LD50 oral, mg/kg)” value was 4,770 (mus) mg/kg.
